Data on 15 molecules can be found in ChEMBL document CHEMBL4152274, “Design, synthesis and X-ray crystallography of selenides bearing benzenesulfonamide moiety with neuropathic pain modulating effects” (Eur J Med Chem, 2018).

Usually Ki stands for the equilibrium dissociation constant of an inhibitor or competing ligand from its target.

The source made the active and inactive calls. The calls are words filed in the database; no cut-off is given here.

One test concerns the target Carbonic anhydrase 9 (Homo sapiens, UniProt Q16790). Description: Inhibition of human carbonic anhydrase 9 incubated for 15 mins prior to testing by stopped-flow CO2 hydration assay.
On to `Cc1cc(C)cc(NC(=O)Nc2ccc([Se]Cc3ccc(S(N)(=O)=O)cc3)cc2)c1`, for which the affinity, expressed as Ki, was 1140 nM.
The molecule `NS(=O)(=O)c1ccc(C[Se]c2ccc3ccccc3c2)cc1` showed a Ki of 337 nM.
As to `NS(=O)(=O)c1ccc(C[Se]c2ccc(NC(=O)/C=C/c3ccccc3)cc2)cc1`, the affinity corresponds to a Ki of 1010 nM.
Consider `N#C[Se]Cc1ccc(S(N)(=O)=O)cc1`, for which the affinity, expressed as Ki, was 4 nM.
Same read-out and setting: then `COc1ccc(C(=O)Nc2ccc([Se]Cc3ccc(S(N)(=O)=O)cc3)cc2)c(OC)c1`, with 845 nM; and `Nc1ccc([Se]Cc2ccc(S(N)(=O)=O)cc2)cc1`, with 286 nM.
Turning to `CN(C)c1ccc([Se]Cc2ccc(S(N)(=O)=O)cc2)cc1`, the affinity, expressed as Ki, was 450 nM.
The same measure, in the same setting: for `NS(=O)(=O)c1ccc(C[Se]c2ccc(NC(=O)Nc3ccc(F)cc3)cc2)cc1` the value was 1070 nM; for `CC(=O)Oc1ccccc1C(=O)Nc1ccc([Se]Cc2ccc(S(N)(=O)=O)cc2)cc1`, 710 nM.
As for `NS(=O)(=O)c1ccc([Se]Cc2ccccc2)cc1`, the affinity corresponds to a Ki of 549 nM.
Same read-out and setting: then `NS(=O)(=O)c1ccc([Se]CC2CC2)cc1`, with 46.4 nM; and `NS(=O)(=O)c1ccc(C[Se]c2ccc(NC(=S)Nc3ccc(-c4c5ccc(=O)cc-5oc5cc(O)ccc45)c(C(=O)O)c3)cc2)cc1`, with 697 nM.

Another test relates to Mus musculus. Description: Pain relieving effect in mouse oxaliplatin-induced neuropathic pain model at 100 mg/kg, po measured over 15 to 45 mins by cold plate test. In kind it is functional, organism-based.
For the molecule `COCC[Se]c1ccc(S(N)(=O)=O)cc1`, the result was Active.
With `NS(=O)(=O)c1ccc([Se]CCc2ccccc2)cc1`, the result was Active.

Another test has as its system Mus musculus. As to the kind of experiment: Pain relieving effect in mouse oxaliplatin-induced neuropathic pain model at 30 mg/kg, po measured at 30 mins by cold plate test. In kind it is functional, organism-based.
Turning to `NS(=O)(=O)c1ccc(C[Se]c2ccccc2)cc1`, the result was Active.
